From ChEMBL document CHEMBL1140679, “The identification of potent, selective, and bioavailable cathepsin S inhibitors” (Bioorg Med Chem Lett, 2007)

How the values were obtained:
Procathepsin L [1] = molecular target: T1, Procathepsin L (Mus musculus, UniProt P06797); experiment: Inhibition of mouse recombinant cathepsin L
T1 sequence (P06797 whole entry): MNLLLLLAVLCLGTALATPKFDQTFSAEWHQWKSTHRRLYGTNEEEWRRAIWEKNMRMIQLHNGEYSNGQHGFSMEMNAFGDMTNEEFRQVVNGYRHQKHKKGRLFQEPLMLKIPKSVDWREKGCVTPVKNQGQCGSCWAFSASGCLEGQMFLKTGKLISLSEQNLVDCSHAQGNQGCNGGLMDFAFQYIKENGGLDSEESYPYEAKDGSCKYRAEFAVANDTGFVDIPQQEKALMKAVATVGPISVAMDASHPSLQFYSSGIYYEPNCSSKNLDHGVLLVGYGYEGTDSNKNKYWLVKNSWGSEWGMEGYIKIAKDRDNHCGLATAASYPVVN

Cathepsin S [2] = molecular target: Cathepsin S (Mus musculus, UniProt O70370); experiment: Inhibition of mouse recombinant cathepsin S
Cathepsin S [3] = molecular target: Cathepsin S (Rattus norvegicus, UniProt Q02765); experiment: Inhibition of rat spleen cathepsin S; type: tissue-based
Cathepsin K [4] = molecular target: T2, Cathepsin K (Homo sapiens, UniProt P43235); experiment: Inhibition of human cathepsin K
T2 sequence (P43235 whole entry): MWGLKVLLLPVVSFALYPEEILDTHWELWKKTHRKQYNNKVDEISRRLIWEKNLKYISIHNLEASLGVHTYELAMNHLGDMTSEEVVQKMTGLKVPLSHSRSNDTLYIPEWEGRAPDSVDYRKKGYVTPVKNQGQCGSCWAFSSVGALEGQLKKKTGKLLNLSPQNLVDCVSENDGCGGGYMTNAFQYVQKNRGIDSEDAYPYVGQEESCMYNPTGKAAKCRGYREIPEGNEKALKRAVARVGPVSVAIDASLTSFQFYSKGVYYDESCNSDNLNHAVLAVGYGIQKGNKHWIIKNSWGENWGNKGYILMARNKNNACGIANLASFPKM

[5] = Inhibition of antigen presentation in mouse B cells; type: functional, cell-based
Cathepsin K [6] = molecular target: T3, Cathepsin K (Mus musculus, UniProt P55097); experiment: Inhibition of mouse recombinant cathepsin K
T3 sequence (P55097 whole entry): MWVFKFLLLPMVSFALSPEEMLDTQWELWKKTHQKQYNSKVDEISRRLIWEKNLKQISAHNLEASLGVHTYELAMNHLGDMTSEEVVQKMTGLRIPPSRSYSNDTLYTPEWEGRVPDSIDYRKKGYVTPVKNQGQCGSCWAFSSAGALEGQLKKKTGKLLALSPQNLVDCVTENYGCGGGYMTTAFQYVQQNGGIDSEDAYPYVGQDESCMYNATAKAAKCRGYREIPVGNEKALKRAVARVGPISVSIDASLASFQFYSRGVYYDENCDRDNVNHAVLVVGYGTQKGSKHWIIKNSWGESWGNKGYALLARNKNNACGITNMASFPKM

Procathepsin L [7] = molecular target: T4, Procathepsin L (Rattus norvegicus, UniProt P07154); experiment: Inhibition of rat liver lysosomal cathepsin L
T4 sequence (P07154 whole entry): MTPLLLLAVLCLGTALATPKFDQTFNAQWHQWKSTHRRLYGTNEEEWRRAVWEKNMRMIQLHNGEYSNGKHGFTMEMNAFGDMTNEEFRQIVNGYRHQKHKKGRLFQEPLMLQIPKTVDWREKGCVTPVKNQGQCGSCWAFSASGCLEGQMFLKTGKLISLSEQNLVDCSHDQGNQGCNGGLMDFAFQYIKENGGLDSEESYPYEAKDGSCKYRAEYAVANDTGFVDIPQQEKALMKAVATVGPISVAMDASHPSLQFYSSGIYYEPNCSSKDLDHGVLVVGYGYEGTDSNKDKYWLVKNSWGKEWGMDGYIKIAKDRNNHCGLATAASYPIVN

Cathepsin B [8] = molecular target: Cathepsin B (Mus musculus, UniProt P10605); experiment: Inhibition of mouse recombinant cathepsin B
Cathepsin B [9] = molecular target: Cathepsin B (Rattus norvegicus, UniProt P00787); experiment: Inhibition of rat liver lysosomal cathepsin B
Cathepsin B [10] = molecular target: Cathepsin B (Homo sapiens, UniProt P07858); experiment: Inhibition of human cathepsin B
[11] = Bioavailability in Sprague-Dawley rat; type: ADME, organism-based; settings: in vivo
Mus musculus [12] = experiment: AUC (0 to 24 hrs) in C57BL/6 mouse at 50 mg/kg, po; type: ADME, organism-based, Plasma; parameters: time < 24 hr, dose 50 mg/kg, route oral; settings: in vivo
Hepatocyte = experiment: Metabolic stability in rat hepatocytes after 2 hrs; type: ADME, cell-based
Procathepsin L [13] = molecular target: Procathepsin L (Homo sapiens, UniProt P07711); experiment: Inhibition of human cathepsin L
Mus musculus [14] = experiment: AUC (0 to 24 hrs) in C57BL/6 mouse at 5 mg/kg, po; type: ADME, organism-based, Plasma; parameters: time < 24 hr, dose 5 mg/kg, route oral; settings: in vivo
[15] = Half life in Sprague-Dawley rat; type: ADME, organism-based; settings: in vivo
[16] = Cmax in Sprague-Dawley rat; type: ADME, organism-based; settings: in vivo
Cathepsin S [17] = molecular target: Cathepsin S (Homo sapiens, UniProt P25774); experiment: Inhibition of human cathepsin S
Mus musculus [18] = experiment: AUC (0 to 24 hrs) in C57BL/6 mouse assessed as (R)-N-(1-cyanocyclopropyl)-3-(methylsulfonyl)-2-((S)-2,2,2-trifluoro-1-(4-fluorophenyl)ethylamino)propanamide levels at 150 mg/kg, po; type: ADME, organism-based, Plasma; parameters: time < 24 hr, dose 150 mg/kg, route oral; settings: in vivo
Mus musculus [19] = experiment: AUC (0 to 24 hrs) in C57BL/6 mouse assessed as (R)-N-(1-cyanocyclopropyl)-3-(methylsulfonyl)-2-((S)-2,2,2-trifluoro-1-(4-fluorophenyl)ethylamino)propanamide levels at 50 mg/kg, po; type: ADME, organism-based, Plasma; parameters: time < 24 hr, dose 50 mg/kg, route oral; settings: in vivo
Mus musculus [20] = species: Mus musculus; experiment: Drug level in C57BL/6 mouse blood at 0.01 w/w %; type: ADME, organism-based; settings: in vivo, read-out: Drug uptake
Mus musculus [21] = species: Mus musculus; experiment: AUC (0 to 24 hrs) in C57BL/6 mouse assessed as (R)-N-(1-cyanocyclopropyl)-3-(methylsulfonyl)-2-((S)-2,2,2-trifluoro-1-(4-fluorophenyl)ethylamino)propanamide levels at 0.25 w/w % after 5 days; type: ADME, organism-based, Plasma; parameters: time < 24 hr; settings: in vivo
Mus musculus [22] = species: Mus musculus; experiment: Drug level in C57BL/6 mouse blood at 0.05 w/w %; type: ADME, organism-based; settings: in vivo, read-out: Drug uptake
Mus musculus [23] = experiment: AUC (0 to 24 hrs) in C57BL/6 mouse assessed as (R)-N-(1-cyanocyclopropyl)-3-(methylsulfonyl)-2-((S)-2,2,2-trifluoro-1-(4-fluorophenyl)ethylamino)propanamide levels at 10 mg/kg, po; type: ADME, organism-based, Plasma; parameters: time < 24 hr, dose 10 mg/kg, route oral; settings: in vivo
Mus musculus [24] = experiment: Increase in p10 fragment accumulation in C57BL/6 mouse at 3 mg/kg/day for 5 days relative to control; type: functional
Mus musculus [25] = species: Mus musculus; experiment: AUC (0 to 24 hrs) in C57BL/6 mouse assessed as (R)-N-(1-cyanocyclopropyl)-3-(methylsulfonyl)-2-((S)-2,2,2-trifluoro-1-(4-fluorophenyl)ethylamino)propanamide levels at 0.05 w/w % after 5 days; type: ADME, organism-based, Plasma; parameters: time < 24 hr; settings: in vivo
Mus musculus [26] = species: Mus musculus; experiment: AUC (0 to 24 hrs) in C57BL/6 mouse assessed as (R)-N-(1-cyanocyclopropyl)-3-(methylsulfonyl)-2-((S)-2,2,2-trifluoro-1-(4-fluorophenyl)ethylamino)propanamide levels at 0.01 w/w % after 5 days; type: ADME, organism-based, Plasma; parameters: time < 24 hr; settings: in vivo
Mus musculus [27] = species: Mus musculus; experiment: Drug level in C57BL/6 mouse blood at 0.25 w/w %; type: ADME, organism-based; settings: in vivo, read-out: Drug uptake
[28] = Cmax in po dosed Sprague-Dawley rat administered in 1:1 inwitor/tween 80 solution; type: ADME, organism-based; parameters: route oral; settings: in vivo
[29] = Bioavailability in po dosed Sprague-Dawley rat administered in 1:1 inwitor/tween 80 solution; type: ADME, organism-based; settings: in vivo
Rattus norvegicus = experiment: Half life in po dosed Sprague-Dawley rat administered in 1:1 inwitor/tween 80 solution; type: ADME, organism-based; settings: in vivo

Cathepsin S (Rattus norvegicus, UniProt Q02765), sequence (Q02765 whole entry): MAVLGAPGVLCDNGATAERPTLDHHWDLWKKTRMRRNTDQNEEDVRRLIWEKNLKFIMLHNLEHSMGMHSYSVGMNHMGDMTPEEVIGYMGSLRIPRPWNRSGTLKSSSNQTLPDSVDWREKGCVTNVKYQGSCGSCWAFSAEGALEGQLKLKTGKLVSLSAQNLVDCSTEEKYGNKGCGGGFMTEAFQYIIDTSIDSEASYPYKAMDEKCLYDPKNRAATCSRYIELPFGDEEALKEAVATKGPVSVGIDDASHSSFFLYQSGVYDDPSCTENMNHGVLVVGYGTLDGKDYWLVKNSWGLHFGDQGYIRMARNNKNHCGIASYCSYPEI
Cathepsin S (Homo sapiens, UniProt P25774), sequence (P25774 whole entry): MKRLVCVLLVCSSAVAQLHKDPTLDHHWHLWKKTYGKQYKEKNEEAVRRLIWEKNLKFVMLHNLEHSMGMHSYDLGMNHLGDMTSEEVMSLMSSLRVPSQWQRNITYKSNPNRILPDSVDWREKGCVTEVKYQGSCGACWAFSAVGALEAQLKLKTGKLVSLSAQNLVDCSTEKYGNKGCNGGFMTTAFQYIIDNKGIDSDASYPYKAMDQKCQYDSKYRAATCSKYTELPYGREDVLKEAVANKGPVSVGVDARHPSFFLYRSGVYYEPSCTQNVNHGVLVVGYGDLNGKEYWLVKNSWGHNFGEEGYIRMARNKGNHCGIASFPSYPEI
Cathepsin B (Rattus norvegicus, UniProt P00787), sequence (P00787 whole entry): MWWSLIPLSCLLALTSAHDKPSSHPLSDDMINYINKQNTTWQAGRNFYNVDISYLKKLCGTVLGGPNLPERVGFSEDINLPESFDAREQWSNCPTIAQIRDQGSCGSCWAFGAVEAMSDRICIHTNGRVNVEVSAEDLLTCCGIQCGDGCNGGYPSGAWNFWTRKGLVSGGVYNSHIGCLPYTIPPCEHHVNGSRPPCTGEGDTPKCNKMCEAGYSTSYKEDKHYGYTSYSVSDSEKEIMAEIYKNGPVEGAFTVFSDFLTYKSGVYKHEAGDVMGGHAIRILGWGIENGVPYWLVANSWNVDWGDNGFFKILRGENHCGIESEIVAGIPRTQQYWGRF
Cathepsin S (Mus musculus, UniProt O70370), sequence (O70370 whole entry): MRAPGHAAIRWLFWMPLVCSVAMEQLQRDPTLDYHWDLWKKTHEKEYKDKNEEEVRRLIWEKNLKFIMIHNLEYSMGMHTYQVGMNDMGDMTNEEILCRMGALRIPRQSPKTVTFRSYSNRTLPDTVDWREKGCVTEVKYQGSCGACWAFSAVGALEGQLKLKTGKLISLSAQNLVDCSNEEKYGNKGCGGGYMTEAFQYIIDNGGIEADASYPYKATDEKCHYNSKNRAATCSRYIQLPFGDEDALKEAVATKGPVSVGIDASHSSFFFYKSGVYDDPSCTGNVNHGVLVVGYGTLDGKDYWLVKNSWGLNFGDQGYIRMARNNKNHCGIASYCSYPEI
Cathepsin B (Mus musculus, UniProt P10605), sequence (P10605 whole entry): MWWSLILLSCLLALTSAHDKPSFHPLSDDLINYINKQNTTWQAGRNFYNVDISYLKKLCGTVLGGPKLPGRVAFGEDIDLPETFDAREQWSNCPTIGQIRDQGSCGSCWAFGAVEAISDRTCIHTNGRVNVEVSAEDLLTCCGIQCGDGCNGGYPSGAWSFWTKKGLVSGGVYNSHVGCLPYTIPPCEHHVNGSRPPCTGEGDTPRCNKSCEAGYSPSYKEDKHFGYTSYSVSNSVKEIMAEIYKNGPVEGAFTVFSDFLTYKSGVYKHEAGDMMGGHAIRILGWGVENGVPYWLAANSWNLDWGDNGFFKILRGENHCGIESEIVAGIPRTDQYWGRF
Procathepsin L (Homo sapiens, UniProt P07711), sequence (P07711 whole entry): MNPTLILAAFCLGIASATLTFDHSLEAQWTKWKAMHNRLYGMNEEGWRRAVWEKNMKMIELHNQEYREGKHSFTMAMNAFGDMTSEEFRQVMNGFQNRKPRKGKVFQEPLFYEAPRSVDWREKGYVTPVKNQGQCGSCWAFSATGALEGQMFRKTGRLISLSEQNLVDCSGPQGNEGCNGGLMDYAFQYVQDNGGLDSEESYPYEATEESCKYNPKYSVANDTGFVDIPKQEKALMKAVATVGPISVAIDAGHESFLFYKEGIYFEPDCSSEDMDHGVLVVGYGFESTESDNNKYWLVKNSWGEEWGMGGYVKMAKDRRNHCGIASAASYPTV

Structure (SMILES)	IC50 (Procathepsin L [1])	IC50 (Cathepsin S [2])	IC50 (Cathepsin S [3])	IC50 (Cathepsin K [4])	IC50 [5]	IC50 (Cathepsin K [6])	IC50 (Procathepsin L [7])	IC50 (Cathepsin B [8])	IC50 (Cathepsin B [9])	IC50 (Cathepsin B [10])	bioavailability [11]	Stability (Hepatocyte)	IC50 (Procathepsin L [13])	half-life [15]	Cmax [16]	IC50 (Cathepsin S [17])	Cmax [28]	bioavailability [29]	t1/2 (Rattus norvegicus)	other results
CC(C)C[C@H](N[C@@H](c1ccc(-c2ccc(S(C)(=O)=O)cc2)cc1)C(F)(F)F)C(=O)NCC#N	254 nM	254 nM	2440 nM	0.2 nM	4810 nM	43 nM	90 nM	540 nM	925 nM	–	–	–	–	–	–	–	–	–	–	–
CS(=O)(=O)C[C@H](N[C@@H](c1ccc(F)cc1)C(F)(F)F)C(=O)NC1(C#N)CC1	3040 nM	0.6 nM	426 nM	405 nM	44 nM	1650 nM	3160 nM	233 nM	319 nM	1.1 µM	48%	Stable	1010 nM	312 min	6.3 µM	1.8 nM	–	–	–	AUC (Mus musculus [12]): 111 µM; AUC (Mus musculus [14]): 43 µM
C[S+]([O-])C[C@H](N[C@@H](c1ccc(F)cc1)C(F)(F)F)C(=O)NC1(C#N)CC1 (stereo not given in full)	> 10000 nM	96 nM	> 10000 nM	1120 nM	–	5840 nM	> 10000 nM	6700 nM	> 10000 nM	9.72 µM	–	–	> 10000 nM	–	–	729 nM	–	–	–	AUC (Mus musculus [18]): 750 µM; AUC (Mus musculus [19]): 274 µM; concentration (Mus musculus [20]): 1000 nM; AUC (Mus musculus [21]): 87 µM; concentration (Mus musculus [22]): 6 µM; AUC (Mus musculus [23]): 63 µM; Activity (Mus musculus [24]): 24; AUC (Mus musculus [25]): 31 µM; AUC (Mus musculus [26]): 7 µM; concentration (Mus musculus [27]): 16 µM
N#CC1(NC(=O)[C@H](CS(=O)(=O)c2ccc(Cl)c(Cl)c2)N[C@@H](c2ccc(F)cc2)C(F)(F)F)CC1	–	–	–	691 nM	–	–	–	–	–	4.81 µM	–	–	41 nM	–	–	0.2 nM	250 nM	35%	1.2 h	–
CS(=O)(=O)C[C@H](N[C@@H](c1ccc(Br)cc1)C(F)(F)F)C(=O)NC1(C#N)CC1	2220 nM	1.6 nM	1050 nM	31 nM	–	1030 nM	1280 nM	69 nM	66 nM	–	40%	Stable	–	660 min	3.3 µM	11 nM	–	–	–	–
N#CC1(NC(=O)[C@H](CS(=O)(=O)c2ccc(Cl)c(Cl)c2)N[C@@H](c2ccccc2)C(F)(F)F)CC1	59 nM	< 0.2 nM	15 nM	314 nM	–	1460 nM	48 nM	3020 nM	5690 nM	8.51 µM	9%	–	24 nM	102 min	0.088 µM	0.2 nM	660 nM	30%	1.7 h	–
